Experimental data reported in ChEMBL document CHEMBL3044660, “Synthesis of 2-amino-6-oxocyclohexenylsulfonamides and their activity against Botrytis cinerea” (Pest Manag Sci, 2011).
Converted amounts (≈) assume the structure as drawn.

What was measured:
Botrytis cinerea [1] = test: Fungicidal activity against Botryotinia fuckeliana in 2 hr compound pretreated cucumber seedling assessed as inhibition of spot diameter squared as control efficiency at 200 ug/ml measured after 72 hr; type: functional; parameters: scale not given: the % may be the effect or the level left
Botrytis cinerea [2] = test: Fungicidal activity against Botryotinia fuckeliana assessed as germ-tube elongation inhibition at 50 ug/ml measured after 24 hr; type: functional
Botrytis cinerea [3] = test: Fungicidal activity against Botryotinia fuckeliana assessed as inhibition of spore germination measured after 24 hr; type: functional, organism-based
Botrytis cinerea [4] = test: Fungicidal activity against Botryotinia fuckeliana assessed as inhibition of mycelial growth measured after 72 hr; type: functional, organism-based

Compound | Activity (Botrytis cinerea [1]) [%] | inhibition at 50 µg/mL (Botrytis cinerea [2]) [%] | EC50 (Botrytis cinerea [3]) [µg/mL] | EC80 (Botrytis cinerea [3]) [µg/mL] | EC50 (Botrytis cinerea [4]) [µg/mL]
Cc1ccc(NC2=C(S(=O)(=O)Nc3ccc(C)cc3)C(=O)CC(C)(C)C2)cc1 | 58.6 | 57.2 | 3.29 (≈ 8.26 µM) | 72.1 (≈ 181 µM) | 22.8 (≈ 57.2 µM)
CCCNC1=C(S(=O)(=O)NCCC)C(=O)CC(C)(C)C1 | 66.59 | 51.2 | 0.23 (≈ 0.76 µM) | 15.6 (≈ 51.7 µM) | 149 (≈ 494 µM)
CC1(C)CC(=O)C(S(=O)(=O)NCc2ccccc2)=C(NCc2ccccc2)C1 | 42.16 | 28.6 | 73.4 (≈ 184 µM) | 139 (≈ 349 µM) | 26.4 (≈ 66.2 µM)
CC1(C)CC(=O)C(S(=O)(=O)NC2CCCCC2)=C(NC2CCCCC2)C1 | 82.21 | 61.5 | 0.64 (≈ 1.67 µM) | 15.4 (≈ 40.3 µM) | 63.7 (≈ 167 µM)
O=C1CCCC(Nc2ccc(Cl)cc2)=C1S(=O)(=O)Nc1ccc(Cl)cc1 | 53.57 | 61.3 | 0.26 (≈ 0.632 µM) | > 200 | 125 (≈ 305 µM)
CC1(C)CC(=O)C(S(=O)(=O)Nc2ccc(Cl)cc2C(F)(F)F)=C(Nc2ccc(Cl)cc2C(F)(F)F)C1 | 47.92 | 51.1 | 6.14 (≈ 10.7 µM) | > 200 | 154 (≈ 268 µM)
CC1(C)CC(=O)C(S(=O)(=O)Nc2cccc(Cl)c2)=C(Nc2cccc(Cl)c2)C1 | 58.51 | 58.6 | 3.03 (≈ 6.9 µM) | 128 (≈ 290 µM) | 32.7 (≈ 74.4 µM)
CC12CC1(C)C(=O)N(c1cc(Cl)cc(Cl)c1)C2=O (stereo not given) [PROCYMIDONE] | 80.39 | 100 | 0.98 (≈ 3.45 µM) | 3.18 (≈ 11.2 µM) | 0.63 (≈ 2.22 µM)
CC1(C)CC(=O)C(S(=O)(=O)Nc2ccc(Cl)c(Cl)c2)=C(Nc2ccc(Cl)c(Cl)c2)C1 | 69.77 | 64.3 | 2.66 (≈ 5.23 µM) | 12.3 (≈ 24.2 µM) | 67.7 (≈ 133 µM)
Cc1ccc(NC2=C(S(=O)(=O)Nc3ccc(C)cc3)C(=O)CCC2)cc1 | 57.48 | 20.5 | 0.54 (≈ 1.46 µM) | 117 (≈ 315 µM) | 47.4 (≈ 128 µM)
O=C1CCCC(Nc2ccccc2Cl)=C1S(=O)(=O)Nc1ccccc1Cl | 74.81 | 81.9 | 0.37 (≈ 0.9 µM) | 60.9 (≈ 148 µM) | 10.6 (≈ 25.7 µM)
CC1(C)CC(=O)C(S(=O)(=O)Nc2cc(C(F)(F)F)cc(C(F)(F)F)c2)=C(Nc2cc(C(F)(F)F)cc(C(F)(F)F)c2)C1 | 75.29 | 61.5 | 0.51 (≈ 0.794 µM) | 34.8 (≈ 54.2 µM) | 92.2 (≈ 144 µM)
CC1(C)CC(=O)C(S(=O)(=O)Nc2cccc(C(F)(F)F)c2)=C(Nc2cccc(C(F)(F)F)c2)C1 | 67.74 | 30.6 | 0.16 (≈ 0.316 µM) | 14.2 (≈ 27.9 µM) | 156 (≈ 308 µM)
Cc1cc(F)ccc1NC1=C(S(=O)(=O)Nc2ccc(F)cc2C)C(=O)CC(C)(C)C1 | 73.46 | 42.9 | 1.59 (≈ 3.66 µM) | > 200 | 45.7 (≈ 105 µM)
CC1(C)CC(=O)C(S(=O)(=O)Nc2ccc(Br)cc2)=C(Nc2ccc(Br)cc2)C1 | 45.09 | 67.9 | 1.44 (≈ 2.73 µM) | 7.39 (≈ 14 µM) | 39.1 (≈ 74.1 µM)
Cc1ccccc1NC1=C(S(=O)(=O)Nc2ccccc2C)C(=O)CC(C)(C)C1 | 64.43 | 57.2 | 19.5 (≈ 49 µM) | 140 (≈ 352 µM) | 8.05 (≈ 20.2 µM)
CC1(C)CC(=O)C(S(=O)(=O)Nc2ccccc2)=C(Nc2ccccc2)C1 | 61.17 | 21.4 | 96.6 (≈ 261 µM) | > 200 | 147 (≈ 398 µM)
CC1(C)CC(=O)C(S(=O)(=O)Nc2ccccc2Cl)=C(Nc2ccccc2Cl)C1 | 73.39 | 85.7 | 0.34 (≈ 0.774 µM) | 4.53 (≈ 10.3 µM) | 21.2 (≈ 48.2 µM)
CC1(C)CC(=O)C(S(=O)(=O)Nc2ccc(Cl)cc2)=C(Nc2ccc(Cl)cc2)C1 | 65.89 | 78.6 | 0.54 (≈ 1.23 µM) | 7.04 (≈ 16 µM) | 128 (≈ 290 µM)
